How the values were obtained:
human TLR8 = target: T1, human TLR8 (Homo sapiens, UniProt Q9NR97); test: HEK293-Blue-hTLR8 cells assay (NF-κB SEAP reporter); format: cell-based; settings: 20 hours incubation, agonism
T1 construct: host or cells: HEK293-Blue-hTLR8 (HEK293)
T1 sequence (Q9NR97 27-1041): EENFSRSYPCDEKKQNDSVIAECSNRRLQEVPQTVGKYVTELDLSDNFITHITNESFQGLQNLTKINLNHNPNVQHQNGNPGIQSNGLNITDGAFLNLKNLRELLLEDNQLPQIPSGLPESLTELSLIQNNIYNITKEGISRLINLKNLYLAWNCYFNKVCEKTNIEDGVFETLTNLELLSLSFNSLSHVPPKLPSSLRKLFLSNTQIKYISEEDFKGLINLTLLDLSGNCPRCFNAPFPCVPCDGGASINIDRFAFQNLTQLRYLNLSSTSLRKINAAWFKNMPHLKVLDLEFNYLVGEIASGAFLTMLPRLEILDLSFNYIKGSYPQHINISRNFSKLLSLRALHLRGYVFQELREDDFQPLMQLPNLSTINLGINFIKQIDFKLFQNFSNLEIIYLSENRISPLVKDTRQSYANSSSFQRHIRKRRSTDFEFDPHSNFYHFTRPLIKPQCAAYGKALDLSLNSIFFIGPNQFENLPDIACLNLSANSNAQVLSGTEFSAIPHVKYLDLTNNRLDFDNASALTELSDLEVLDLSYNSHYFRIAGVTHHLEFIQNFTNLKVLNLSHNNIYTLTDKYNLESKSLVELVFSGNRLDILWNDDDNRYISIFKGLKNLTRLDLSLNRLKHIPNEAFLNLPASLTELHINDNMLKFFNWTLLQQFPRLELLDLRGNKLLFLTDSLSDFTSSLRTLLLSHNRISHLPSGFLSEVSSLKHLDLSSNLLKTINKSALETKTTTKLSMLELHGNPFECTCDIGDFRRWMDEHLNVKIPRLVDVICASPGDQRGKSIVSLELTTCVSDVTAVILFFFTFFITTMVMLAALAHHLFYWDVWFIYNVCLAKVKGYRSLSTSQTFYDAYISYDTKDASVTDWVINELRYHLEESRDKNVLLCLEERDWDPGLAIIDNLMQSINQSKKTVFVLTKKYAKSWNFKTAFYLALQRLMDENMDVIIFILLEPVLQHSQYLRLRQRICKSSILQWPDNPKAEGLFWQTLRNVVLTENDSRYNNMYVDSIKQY
Source text: A stable HEK293-Blue-hTLR8 cell line was purchased from InvivoGen (Cat. #: hkb-htlr8, San Diego, California, USA). These cells were designed for studying the stimulation of human TLR8 by monitoring the activation of NF-κB. A SEAP (secreted embryonic alkaline phosphatase) reporter gene was placed under the control of the IFN-β minimal promoter fused to five NF-κB and AP-1-binding sites. The SEAP was induced by activating NF-κB and AP-1 via stimulating HEK-Blue hTLR8 cells with TLR8 ligands. Therefore the reporter expression was regulated by the NF-κB promoter upon stimulation of human TLR8. The cell culture supernatant SEAP reporter activity was determined using QUANTI-Blue™ kit (Cat. #: rep-qbl, Invivogen, San Diego, Ca, USA) at a wavelength of 650 nm, a detection medium that turns purple to blue in the presence of alkaline phosphatase.
HEK293-Blue-hTLR8 cells were incubated at a density of 250,000-450,000 cells/mL in a volume of 180 μL in a 96-well plate in Dulbecco's Modified Eagle's medium (DMEM) containing 4.5 g/L glucose, 100 U/mL penicillin, 100 μg/mL streptomycin, 100 μg/mL Normocin, 1% (V/V) GlutaMAX™, 10% (v/v) heat-inactivated fetal bovine serum for 24 hours. Then the HEK293-Blue-hTLR8 cells were incubated with addition of 20 μL test compound in a serial dilution in the presence of final DMSO at 1% and perform incubation under 37° C. in a CO2 incubator for 20 hours. Then 20 μL of the supernatant from each well was incubated with 180 μL Quanti-blue substrate solution at 37° C. for 1 hours and the absorbance was read at 620-655 nm using a spectrophotometer. The signalling pathway that TLR8 activation leads to downstream NF-κB activation has been widely accepted, and therefore similar reporter assay was also widely used for evaluating TLR8 agonist.

human TLR7 = target: T2, human TLR7 (Homo sapiens, UniProt Q9NYK1); test: HEK293-Blue-hTLR7 cells assay (NF-κB SEAP reporter); format: cell-based; settings: 20 hrs incubation, agonism
T2 construct: host or cells: HEK293-Blue-hTLR7 (HEK293)
T2 sequence (Q9NYK1 27-1049): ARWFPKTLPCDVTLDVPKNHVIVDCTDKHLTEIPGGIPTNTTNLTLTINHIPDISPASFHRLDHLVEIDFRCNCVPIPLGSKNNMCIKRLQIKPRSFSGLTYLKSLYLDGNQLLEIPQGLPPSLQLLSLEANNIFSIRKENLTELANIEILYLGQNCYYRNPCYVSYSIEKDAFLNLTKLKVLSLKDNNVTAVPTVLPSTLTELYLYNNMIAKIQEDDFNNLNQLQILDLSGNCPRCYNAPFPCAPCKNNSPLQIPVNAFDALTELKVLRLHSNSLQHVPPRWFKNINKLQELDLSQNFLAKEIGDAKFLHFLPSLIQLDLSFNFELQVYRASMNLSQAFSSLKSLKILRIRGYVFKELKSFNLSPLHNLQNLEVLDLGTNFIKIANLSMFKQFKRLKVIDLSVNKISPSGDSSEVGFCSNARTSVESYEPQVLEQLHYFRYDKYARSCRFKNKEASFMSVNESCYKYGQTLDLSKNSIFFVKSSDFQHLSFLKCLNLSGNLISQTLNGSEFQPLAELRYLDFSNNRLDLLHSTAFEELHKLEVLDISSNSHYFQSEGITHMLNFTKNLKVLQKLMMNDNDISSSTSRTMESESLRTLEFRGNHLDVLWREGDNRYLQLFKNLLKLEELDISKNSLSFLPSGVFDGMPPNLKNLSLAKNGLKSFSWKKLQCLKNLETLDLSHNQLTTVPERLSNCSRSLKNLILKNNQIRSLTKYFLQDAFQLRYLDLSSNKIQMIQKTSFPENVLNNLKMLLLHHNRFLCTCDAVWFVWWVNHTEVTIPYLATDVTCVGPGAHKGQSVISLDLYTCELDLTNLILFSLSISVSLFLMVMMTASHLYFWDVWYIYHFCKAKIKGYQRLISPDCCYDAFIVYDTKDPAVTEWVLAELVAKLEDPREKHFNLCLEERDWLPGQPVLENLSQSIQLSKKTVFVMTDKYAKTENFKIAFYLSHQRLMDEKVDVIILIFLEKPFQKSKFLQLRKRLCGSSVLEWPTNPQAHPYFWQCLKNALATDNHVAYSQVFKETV
Source text: A stable HEK293-Blue-hTLR7 cell line was purchased from InvivoGen (Cat. #: hkb-htlr7, San Diego, California, USA). These cells were designed for studying the stimulation of human TLR7 by monitoring the activation of NF-κB. A SEAP (secreted embryonic alkaline phosphatase) reporter gene was placed under the control of the IFN-β minimal promoter fused to five NF-κB and AP-1-binding sites. The SEAP was induced by activating NF-κB and AP-1 via stimulating HEK-Blue hTLR7 cells with TLR7 ligands. Therefore the reporter expression was regulated by the NF-κB promoter upon stimulation of human TLR7 for 20 hrs. The cell culture supernatant SEAP reporter activity was determined using QUANTI-Blue™ kit (Cat. #: rep-qbl, Invivogen, San Diego, Ca, USA) at a wavelength of 650 nm, a detection medium that turns purple or blue in the presence of alkaline phosphatase.
HEK293-Blue-hTLR7 cells were incubated at a density of 250,000˜450,000 cells/mL in a volume of 180 μL in a 96-well plate in Dulbecco's Modified Eagle's medium (DMEM) containing 4.5 g/L glucose, 100 U/mL penicillin, 100 μg/mL streptomycin, 100 μg/mL Normocin, 1% (V/V) GlutaMAX™, 10% (V/V) heat-inactivated fetal bovine serum for 24 hrs. Then the HEK293-Blue-hTLR-7 cells were incubated with addition of 20 μL test compound in a serial dilution in the presence of final DMSO at 1% and perform incubation under 37° C. in a CO2 incubator for 20 hrs. Then 20 μL of the supernatant from each well was incubated with 180 μL Quanti-blue substrate solution at 37° C. for 1 hours and the absorbance was read at 620-655 nm using a spectrophotometer. The signalling pathway that TLR7 activation leads to downstream NF-κB activation has been widely accepted, and therefore similar reporter assay was also widely used for evaluating TLR7 agonist (Tsuneyasu Kaisho and Takashi Tanaka, Trends in Immunology, Volume 29, Issue 7, July 2008, […]; Hiroaki Hemmi et al, Nature Immunology 3, 196-200 (2002)).

Row | Compound | EC50 (human TLR8) | EC50 (human TLR7)
1 | CCOCc1nc2c(N)nc(C)c(Sc3ccc(CN(C)C)cc3)c2[nH]1 [Example 1, 7-[4-[(dimethylamino)methyl]phenyl]sulfanyl-2-(ethoxymethyl)-6-methyl-1H-imidazo[4,5-c]pyridin-4-amine] | 14 nM | 27 nM
2 | CCCCc1nc2c(N)nc(C)c(Sc3ccc(CN(C)C)cc3)c2n1CC(C)(C)O [Example 2, 1-[4-amino-2-butyl-7-[4-[(dimethylamino)methyl]phenyl]sulfanyl-6-methyl-imidazo[4,5-c]pyridin-1-yl]-2-methyl-propan-2-ol] | 28 nM | 35 nM
3 | CCOCc1nc2c(N)nc(C)c([Se]c3ccc(CN(C)C)cc3)c2n1CC(C)(C)O [Example 3, 1-[4-amino-7-[4-[(dimethylamino)methyl]phenyl]selanyl-2-(ethoxymethyl)-6-methyl-imidazo[4,5-c]pyridin-1-yl]-2-methyl-propan-2-ol] | 24 nM | 28 nM
4 | CCOCc1nc2c(N)nc(C)c(Sc3c(OC)cc(CN(C)C)cc3OC)c2[nH]1 [Example 4, 7-[4-[(dimethylamino)methyl]-2,6-dimethoxy-phenyl]sulfanyl-2-(ethoxymethyl)-6-methyl-1H-imidazo[4,5-c]pyridin-4-amine] | 20 nM | 1 nM
5 | CCCN(CC)Cc1ccc(Sc2c(C)nc(N)c3nc(COCC)[nH]c23)cc1 [Example 5, 2-(ethoxymethyl)-7-[4-[[ethyl(propyl)amino]methyl]phenyl]sulfanyl-6-methyl-1H-imidazo[4,5-c]pyridin-4-amine] | 30 nM | 18 nM
6 | CCOCc1nc2c(N)nc(C)c(Sc3ccc(CN(C)CC)cc3)c2[nH]1 [Example 6, 2-(ethoxymethyl)-7-[4-[[ethyl(methyl)amino]methyl]phenyl]sulfanyl-6-methyl-1H-imidazo[4,5-c]pyridin-4-amine] | 10 nM | 15 nM
7 | CCOCc1nc2c(N)nc(C)c(Sc3ccc(CN(C)C)cc3)c2n1C [Example 7, 7-[4-[(dimethylamino)methyl]phenyl]sulfanyl-2-(ethoxymethyl)-1,6-dimethyl-imidazo[4,5-c]pyridin-4-amine] | 26 nM | 27 nM
8 | CCOCc1nc2c(N)nc(C)c(Sc3ccc(CN(C)C)cc3O)c2[nH]1 [Example 8, 2-[[4-amino-2-(ethoxymethyl)-6-methyl-1H-imidazo[4,5-c]pyridin-7-yl]sulfanyl]-5-[(dimethylamino)methyl]phenol] | 26 nM | 27 nM
9 | CCOCc1nc2c(N)nc(C)c(Sc3ccc(CN(C)C)c(OC)c3)c2[nH]1 [Example 9, 7-[4-[(dimethylamino)methyl]-3-methoxy-phenyl]sulfanyl-2-(ethoxymethyl)-6-methyl-1H-imidazo[4,5-c]pyridin-4-amine] | 3 nM | 30 nM
10 | CCOCc1nc2c(N)nc(C)c(SCCc3ccc(CN(C)C)cc3)c2[nH]1 [Example 10, 7-[2-[4-[(dimethylamino)methyl]phenyl]ethylsulfanyl]-2-(ethoxymethyl)-6-methyl-1H-imidazo[4,5-c]pyridin-4-amine] | 10 nM | 8 nM
11 | CCOCc1nc2c(N)nc(C)c(Sc3ccc(CN(C)C)c(O)c3)c2[nH]1 [Example 11, 5-[[4-amino-2-(ethoxymethyl)-6-methyl-1H-imidazo[4,5-c]pyridin-7-yl]sulfanyl]-2-[(dimethylamino)methyl]phenol] | 4 nM | 18 nM
12 | CCOCc1nc2c(N)nc(C)c(Sc3ccc(CN(C)C)c(O)c3)c2n1C [Example 12, 5-[4-amino-2-(ethoxymethyl)-1,6-dimethyl-imidazo[4,5-c]pyridin-7-yl]sulfanyl-2-[(dimethylamino)methyl]phenol] | 3 nM | 10 nM
13 | CCOCc1nc2c(N)nc(C)c(SCCc3ccc(CN(C)C)c(O)c3)c2[nH]1 [Example 13, 5-[2-[[4-amino-2-(ethoxymethyl)-6-methyl-LH-imidazo[4,5-c]pyridin-7-yl]sulfanyl]ethyl]-2-[(dimethylamino)methyl]phenol] | 19 nM | 12 nM

Reference: US20260070906A1, “IMIDAZO[4,5-C]PYRIDINE COMPOUNDS FOR THE TREATMENT OF CANCER” (Hoffmann-La Roche Inc., priority 2023, published 2026)
